Source: patent publication US20230011398A1, “COMBINATION THERAPY APPROACH TO ELIMINATE HIV INFECTIONS” (priority 2019, published 2023)

Tests used:
Assay type in all cases: cell-based, human
HIV-1-infected T cells = assay: Annexin V / DEVD-FITC / p24 cell death assay in T cells with or without HIV-1 infection
Procedure: Naïve T cells, activated T cells, CMT or EMT with or without infection with HIV-1 (NL4-3, 1 MOI) were cultured for 4 days in the presence of 30 nM CCL19 and 0.3 ng/ml IL-2 for 4 days to establish latent HIV infection. […] The cells were then incubated with 1 μM FITC-DEVD-FMK (Biovision), followed by staining with APC-Annexin V (Biolegend) and intracellular staining with PE-anti-HIV p24. The cells were analyzed by flow cytometry. The percentage of cell death was calculated by the loss of live cells negative for annexin V and DEVD staining by comparing treated and untreated groups: (untreated—treated)/untreated x 100%.

[1] = system: CD4+ T cells with or without infection by HIV-1; assay: Western blot of caspases, Bcl-2 family and LC3 after IDB
Procedure: Western blot. PBMC CD4^+ T cells with or without infection by HIV-1 cultured for 4 days with CCL19 as in FIG. 1a. The cells were then cultured in the absence or presence of 0.1 μM IDB for 24 h. The cells were lysed in lysis buffer containing 50 mM HEPES, pH 7.5, 150 mM NaCl, 1 mM EDTA, 1% Triton X-100, 1X protease inhibitor mixture (Roche Applied Science) and 10 μM Benzyloxycarbonyl-Val-Ala-Asp (OMe) fluoromethylketone (zVAD-FMK, ENZO Life Sciences). The cell lysates were determined by the Bradford assay (Bio-Rad). Samples were used for SDS-PAGE and Western blot analyses by probing with different antibodies: monoclonal antibodies to caspase-9 (1:1,000, M054-3, clone 5B4) and caspase-7 (1:1,000, M053-3, clone 4G2) from Medical & Biological Laboratories; polyclonal rabbit antibodies to Atg-7 (1:1,000, 2631S), cleaved caspase-9 (1:1,000, 52873s), caspase-3 (1:1,000, 9665s); cleaved caspase-3 (1:1,000, 9501s), caspase-6 (1:1,000, 9762s), Mc1-1 (1:1,000, 5453s), Bcl-2 (1:1,000, 4223s), Bcl-xL (1:1,000, 2762s), Bak (1:1,000, 12105s), Bax (1:1,000, 2772s), LC3 (1:1000, 4108s) from Cell Signaling Technology and monoclonal antibody to β-Actin (1:50,000, sc-47778, clone C4) from Santa Cruz Biotechnology. The blots were them incubated with HRP-conjugated goat anti-Mouse IgG1 (1:50,000, 1070-05, Southern Biotech) or HRP-conjugated goat anti-Rabbit IgG (1:50,000, ab6721, Abcam) and developed using SuperSignal West Dura Extended Duration Substrate (ThermoFisher).

[2] = system: PBMCs from HIV-1-infected patients; assay: In vitro treatment of PBMCs from HIV-1-infected patients, HIV-1 mRNA by RT-PCR; conditions: outpatients undergoing ART, no active virus production
Procedure: Quantification of HIV-1 mRNA and DNA. HIV-1 mRNA was measured by RT-PCR similar to the described protocols. LTR-GAG was amplified with forward primer (LTR-GAG-AF), 5′-[…]-3′ (SEQ. ID NO. 9) and reverse primer (LTR-GAG-AR), 5′-[…] […]-3′ (SEQ. ID NO. 10), and detected with the LTR-GAG probe, SHEX/[…]/ZEN /[…]/3IABkFQ (SEQ. ID NO. 11). HIV-1 pol-1 was amplified with POL-1 forward primer (POL-1-AF), 5′-[…]-3′ (SEQ. ID NO. 12) and reverse primer (POL-1-AR), 5′-[…]-3′ (SEQ. ID NO. 13), and detected with the pol-1 probe FAM/[…]/ZEN/[…]/3IABKFQ (SEQ. ID NO. 14) in iTaq Universal Probes Supermix (Bio-Rad). The reaction was carried out by iTaq Universal Probes Supermix (Bio-Rad) with a QuantStudio 5 Real-Time PCR System and analyzed with the QuantStudio Design and Analysis Software (Applied Biosystem). Cycle threshold (Ct) values were calibrated using standard curve generated with the standard samples with known amounts of viral copies.
Treatment of PBMCs from HIV-1-infected patients. PBMCs from HIV-1 patients were resuspended in RPMI complete medium containing and 0.3 ng/ml IL-2 and 50 ng/ml M-CSF and cultured with 0.2 μM BMS-626529, 0.2 μM raltegravir, 25 nM IDB, 20 nM ABT-263, 0.1 μM SAR405 and 0.25 μM JQ1 for 2 days as one cycle of treatments. The cells were then washed and cultures in the same medium for next cycle of culture. […]

[3] = HIV-1-infected T cells, IDB 24 h

Compound: CC1=C[C@]23C(=O)[C@@H](C=C(COC(=O)c4ccccc4)[C@@H](O)[C@]2(O)[C@H]1OC(=O)c1ccccc1)[C@H]1[C@@H](C[C@H]3C)C1(C)C [IDB, ingenol 3,20-dibenzoate]
- cell death in HIV-1-infected T cells (Annexin V, cleavage of DEVD) (HIV-1-infected T cells; 0.1 μM IDB, 48 h): induced cell death in HIV-1-infected T cells
- cell death in uninfected cells (HIV-1-infected T cells; 0.1 μM IDB, 48 h): relatively resistant
- caspase-3 activities measured by cleavage of DEVD (HIV-1-infected T cells; HIV-1-infected CMT, 100 nM IDB 24 h): increased caspase-3 activities
- cell death in HIV-1-infected CMT, Annexin V staining (HIV-1-infected T cells; NL4-3 1 MOI, 100 nM IDB 24 h): induced cell death
- expression of anti-apoptotic Bcl-xL and Mcl-1 ([1]; CD4+ T cells not infected with HIV-1, IDB 24 h): increased the expression
- activation of caspase-9, caspase-3, caspase-6 and caspase-7 [1, 3]: induced the activation
- expression of Bcl-xL and Mcl-1 [1, 3]: induced the expression of Bcl-xL and Mcl-1
- expression of anti-apoptotic Bcl-2 ([1]; IDB 24 h): did not change
- expression of LC3 ([1]; T cell with or without HIV-1 infections, IDB 24 h): induced the expression of LC3
- increase in Bcl-xL expression in HIV-1-infected cells ([1]; compared with uninfected controls, IDB 24 h): greater than in uninfected controls
- HIV-1 detection in PBMCs after stimulation with IDB [2]: could be detected
